target: IDO1 (Homo sapiens, UniProt P14902); experiment: IDO1 Human Whole Blood Assay; assay type: cell-based; conditions: LPS and IFNγ 100 ng/mL, overnight (18 h), kynurenine by LC/MS/MS, read-out: Human Whole Blood Potency, IC50
Procedure: IDO1 Human Whole Blood Assay Compounds to be tested were serially diluted in ten 3-fold steps in DMSO starting from 10 mM. 3 μL of compound dilutions or DMSO alone were then dispensed from the dilution plate into a polypropylene 96-well assay plate containing 97 μL of RPMI using an Echo 555 acoustic liquid handler (Labcyte). LPS and IFNγ was prepared in RPMI to a 10× of final conc. (1000 ng/mL), final concentration is 100 ng/mL. […] 240 μL of blood was transferred to each of the wells of a v-bottom 96 well plate. 30 μL of compound was transferred from intermediate dilution plate, and incubated for 15 min. 30 μL from stimulants was then transferred to blood and mixed thoroughly. Plate was covered with breathable membrane and incubated at 37° C. for overnight (18 h). […] Plasma was diluted with RPMI in 1:1 ratio and proteins were precipitated out with two volume of Acetonitrile. The plates were centrifuged at 4000×G for 60 min. 20 μL of supernatant was carefully transferred to a 384 well plate contain 40 μL of 0.1% formic acid in water and analyzed by LC/MS/MS. LC/MS/MS analyses were performed using Thermo Fisher's LX4-TSQ Quantum Ultra system. This system consists of four Agilent binary high-performance liquid chromatography (HPLC) pumps and a TSQ Quantum Ultra triple quadrupole MS/MS instrument. For each sample, 5 μL were injected onto an Atlantis T3 column (2.1 mm×150 mm, 3 μm particle size) from Waters. The mobile phase gradient pumped at 0.8 mL/min was used to elute the analytes from the column at 25° C. The elution started at 0% B increasing linearly to 25% B at 6.5 min, holding at 25% for 1 min, re-equilibrating to 10 min. Mobile phase A consisted of 0.1% formic acid in water. Mobile phase B consisted of 0.1% of formic acid in acetonitrile. Data was acquired in positive mode using a HESI interface. The operational parameters for the TSQ Quantum Ultra instrument were a spray voltage of 4000 V, capillary temperature of 380° C., vaporizer temperature 400° C., shealth gas 60 arbitrary units, Aux gas 20 arbitrary units, tube lens 85 and collision gas 1.2 mTorr. SRM chromatograms of kynurenine (Q1: 209.2>Q3:94.0) and internal standard (Q1: 215.3>Q3:98.2) were collected for 90 sec. The peak area was integrated by Xcalibur Quan software. […] Compounds were titrated and IC50's were calculated by 4 parameter sigmoidal curve fitting formula.

Chain of IDO1 (P14902 whole entry): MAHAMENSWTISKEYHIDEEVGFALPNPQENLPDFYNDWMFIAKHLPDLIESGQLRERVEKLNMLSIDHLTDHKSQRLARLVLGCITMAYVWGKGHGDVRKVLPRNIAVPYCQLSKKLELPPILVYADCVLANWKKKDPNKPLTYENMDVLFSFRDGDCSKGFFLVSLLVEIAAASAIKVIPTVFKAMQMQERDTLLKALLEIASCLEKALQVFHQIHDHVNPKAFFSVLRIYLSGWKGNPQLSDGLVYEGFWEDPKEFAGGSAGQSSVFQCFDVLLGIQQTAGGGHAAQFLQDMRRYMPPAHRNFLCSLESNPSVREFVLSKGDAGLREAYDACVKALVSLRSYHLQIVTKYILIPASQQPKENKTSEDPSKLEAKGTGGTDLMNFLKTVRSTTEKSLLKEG

IC50 [nM] | SMILES
964 | Cc1cccc(N2CCC(C(F)Cn3nc(C(=O)N4C[C@@H](C)O[C@@H](C)C4)c4c3CCC4)CC2)c1C (single isomer, unassigned) [Example 48]
177 | Cc1c(F)ccc(C2CCC(CCn3nc(C(=O)N4CCN(C(=O)CO)CC4)c4c3CCC4)CC2)c1C (single isomer, unassigned) [Example 49, 1-(4-(1-(2-(4-(4-fluoro-2,3-dimethylphenyl)cyclohexyl)ethyl)-1,4,5,6-tetrahydrocyclopenta[c]pyrazole-3-carbonyl)piperazin-1-yl)-2-hydroxyethan-1-one]
448 | Cc1c(F)ccc(C2CCC(CCn3nc(C(=O)N4CCC(F)(CO)CC4)c4c3CCC4)CC2)c1C (single isomer, unassigned) [Example 52, (1-(2-(4-(4-fluoro-2,3-dimethylphenyl)cyclohexyl)ethyl)-1,4,5,6-tetrahydrocyclopenta[c]pyrazol-3-yl)(4-fluoro-4-(hydroxymethyl)piperidin-1-yl)methanone]
166 | Cc1cccc(C2CCC(CCn3nc(C(=O)N4CCC(O)CC4)c4c3CCC4)CC2)c1C (single isomer, unassigned) [Example 95, (1-(2-(4-(2,3-dimethylphenyl)cyclohexyl)ethyl)-1,4,5,6-tetrahydrocyclopenta[c]pyrazol-3-yl)(4-hydroxypiperidin-1-yl)methanone]
328 | Cc1cccc(C2CCC(CCn3nc(C(=O)N4CCC(O)CC4)c4c3CCC4)CC2)c1C (single isomer, unassigned) [Example 96, (1-(2-(4-(2,3-dimethylphenyl)cyclohexyl)ethyl)-1,4,5,6-tetrahydrocyclopenta[c]pyrazol-3-yl)(4-hydroxypiperidin-1-yl)methanone]
341 | Cc1cccc(N2CCC(CCn3nc(C(=O)N4CCC(O)CC4)c4c3CCC4)CC2)c1C [Example 1, (1-(2-(1-(2,3-dimethylphenyl)piperidin-4-yl)ethyl)-1,4,5,6-tetrahydrocyclopenta[c]pyrazol-3-yl)(4-hydroxypiperidin-1-yl)methanone]
251 | Cc1c(F)ccc(N2CCC(CCn3nc(C(=O)N4CCC(F)(CO)CC4)c4c3CCC4)CC2)c1C [Example 8, (1-(2-(1-(4-fluoro-2,3-dimethylphenyl)piperidin-4-yl)ethyl)-1,4,5,6-tetrahydrocyclopenta[c]pyrazol-3-yl)(4-fluoro-4-(hydroxymethyl)piperidin-1-yl)methanone]
800 | Cc1c(F)ccc(N2CCC(CCn3nc(C(=O)N4CCN(C(=O)CO)CC4)c4c3CCC4)CC2)c1C [Example 11, 1-[4-[1-[2-[1-(4-fluoro-2,3-dimethyl-phenyl)piperidin-1-ium-4-yl]ethyl]-5,6-dihydro-4H-cyclopenta[c]pyrazole-3-carbonyl]piperazin-1-yl]-2-hydroxy-ethanone]
437 | CC(=O)NC1CCN(C(=O)c2nn(CCC3CCN(c4ccc(F)c(F)c4C)CC3)c3c2CCCC3)CC1 [Example 18, N-[1-[1-[2-[1-(3,4-difluoro-2-methyl-phenyl)-4-piperidyl]ethyl]-4,5,6,7-tetrahydroindazole-3-carbonyl]-4-piperidyl]acetamide]
286 | CC(=O)NC1CCN(C(=O)c2nn(CCC3CCN(c4cccc(Cl)c4C)CC3)c3c2CCCC3)CC1 [Example 20, N-[1-[1-[2-[1-(3-chloro-2-methyl-phenyl)-4-piperidyl]ethyl]-4,5,6,7-tetrahydroindazole-3-carbonyl]-4-piperidyl]acetamide]
935 | CC(=O)NC1CCN(C(=O)c2nn(CCC3CCN(c4nccc(C(F)(F)F)c4F)CC3)c3c2CCCC3)CC1 [Example 35, N-[1-[1-[2-[1-[3-fluoro-4-(trifluoromethyl)-2-pyridyl]-4-piperidyl]ethyl]-4,5,6,7-tetrahydroindazole-3-carbonyl]-4-piperidyl]acetamide]
822 | Cc1c(Cl)cccc1O[C@H]1CC[C@@H](CCn2nc(C(=O)N3C[C@@H](C)O[C@@H](C)C3)c3c2CCC3)CC1 [Example 53, (1-(2-((1s,4S)-4-(3-chloro-2-methylphenoxy)cyclohexyl)ethyl)-1,4,5,6-tetrahydrocyclopenta[c]pyrazol-3-yl)((2R,6S)-2,6-dimethylmorpholino)methanone]
517 | Cc1ccc(Cl)c(O[C@H]2CC[C@@H](CCn3nc(C(=O)N4CCN(C(=O)CO)CC4)c4c3CCC4)CC2)c1 [Example 57, 1-(4-(1-(2-((1s,4s)-4-(2-chloro-5-methylphenoxy)cyclohexyl)ethyl)-1,4,5,6-tetrahydrocyclopenta[c]pyrazole-3-carbonyl)piperazin-1-yl)-2-hydroxyethan-1-one]
538 | Cc1ccc(Cl)c(O[C@H]2CC[C@@H](CCn3nc(C(=O)N4CCC(F)(CO)CC4)c4c3CCC4)CC2)c1 [Example 58, (1-(2-((1s,4s)-4-(2-chloro-5-methylphenoxy)cyclohexyl)ethyl)-1,4,5,6-tetrahydrocyclopenta[c]pyrazol-3-yl)(4-fluoro-4-(hydroxymethyl)piperidin-1-yl)methanone]
30.6 | CC(=O)NC1CCN(C(=O)c2nn(CC[C@H]3CC[C@@H](Oc4ccccc4C)CC3)c3c2CCC3)CC1 [Example 61, N-(1-(1-(2-((1s,4s)-4-(2-methylphenoxy)cyclohexyl)ethyl)-1,4,5,6-tetrahydrocyclopenta[c]pyrazole-3-carbonyl)piperidin-4-yl)acetamide]
215 | CC(=O)NC1CCN(C(=O)c2nn(CC[C@H]3CC[C@@H](Oc4cnccc4C)CC3)c3c2CCC3)CC1 [Example 64, N-(1-(1-(2-((1s,4s)-4-((4-methylpyridin-3-yl)oxy)cyclohexyl)ethyl)-1,4,5,6-tetrahydrocyclopenta[c]pyrazole-3-carbonyl)piperidin-4-yl)acetamide]
130 | CC(=O)NC1CCN(C(=O)c2nn(CC[C@H]3CC[C@@H](Oc4ccccc4C(F)(F)F)CC3)c3c2CCC3)CC1 [Example 65, N-(1-(1-(2-((1s,4s)-4-(2-(trifluoromethyl)phenoxy)cyclohexyl)ethyl)-1,4,5,6-tetrahydrocyclopenta[c]pyrazole-3-carbonyl)piperidin-4-yl)acetamide]
153 | CC(=O)NC1CCN(C(=O)c2nn(CC[C@H]3CC[C@@H](Oc4nccc(C)c4C#N)CC3)c3c2CCC3)CC1 [Example 66, N-(1-(1-(2-((1s,4s)-4-((3-cyano-4-methylpyridin-2-yl)oxy)cyclohexyl)ethyl)-1,4,5,6-tetrahydrocyclopenta[c]pyrazole-3-carbonyl)piperidin-4-yl)acetamide]
209 | CC(=O)NC1CCN(C(=O)c2nn(CC[C@H]3CC[C@@H](Oc4ccc(C)nc4C)CC3)c3c2CCC3)CC1 [Example 67, N-(1-(1-(2-((1s,4s)-4-((2,6-dimethylpyridin-3-yl)oxy)cyclohexyl)ethyl)-1,4,5,6-tetrahydrocyclopenta[c]pyrazole-3-carbonyl)piperidin-4-yl)acetamide]
517 | CC(=O)NC1CCN(C(=O)c2nn(CC[C@H]3CC[C@@H](Oc4cnc(C)nc4C)CC3)c3c2CCC3)CC1 [Example 68, N-(1-(1-(2-((1s,4s)-4-((2,4-dimethylpyrimidin-5-yl)oxy)cyclohexyl)ethyl)-1,4,5,6-tetrahydrocyclopenta[c]pyrazole-3-carbonyl)piperidin-4-yl)acetamide]
161 | CC(=O)NC1CCN(C(=O)c2nn(CC[C@H]3CC[C@@H](Oc4ccccc4Cl)CC3)c3c2CCC3)CC1 [Example 70, N-[1-[1-[2-[4-(2-chlorophenoxy)cyclohexyl]ethyl]-5,6-dihydro-4H-cyclopenta[c]pyrazole-3-carbonyl]-4-piperidyl]acetamide]
178 | CC(=O)NC1CCN(C(=O)c2nn(CC[C@H]3CC[C@@H](Oc4ncccc4C)CC3)cc2C2CC2)CC1 [Example 74, N-(1-(4-cyclopropyl-1-(2-((1s,4s)-4-((3-methylpyridin-2-yl)oxy)cyclohexyl)ethyl)-1H-pyrazole-3-carbonyl)piperidin-4-yl)acetamide]
136 | CC(=O)NC1CCN(C(=O)c2nn(C[C@@H]3C[C@@H](Oc4ccc(Cl)cn4)CCO3)c3c2CC(F)(F)CC3)CC1 [Example 77, 6-{3-[4-(acetylamino)piperidine-1-carbonyl]-5,5-difluoro-4,5,6,7-tetrahydro-1H-indazol-1-yl}-1,5-anhydro-3-O-(5-chloropyridin-2-yl)-2,4,6-trideoxy-D-erythro-hexitol]
